The source made the active and inactive calls. The calls are words filed in the database; no cut-off is given here. Numbered stars: 1 amine (or outer) side, 2 acyl side, 3 side chain; on linkers, the order of the positions; unused ones are H or OH. Square brackets hold non-standard residues; d marks the D form. Peptide text beside a SMILES is read from it. * marks the point of attachment. Biotinyl(3aR,4R,6aS) = O=C1N[C@@H]2[C@@H](CS[C@@H]2CCCCC(=O)*)N1; N(2-Aminoethyl)Gly = O=C(CN(CCN[*:3])[*:1])[*:2]; Chlorambucil = O=C(CCCc1ccc(N(CCCl)CCCl)cc1)*; Gly(N-propargyl) = C#CCNCC(=O)O; NPrGly = CCCNCC(=O)O
Legend:
MDA-MB-231 [1] = experiment: Binding affinity to pri-miR-96 RNA in human MDA-MB-231 cells assessed as reduction in matured miR-96 levels at 50 nM for 24 hrs by RT-qPCR method; assay type: cell-based
[2] = Binding affinity to 32P-labeled pri-miR-96 RNA (unknown origin) incubated for 4 hrs by streptavidin based liquid scintillation counting dependent pull down assay
MDA-MB-231 [3] = experiment: Induction of apoptosis in human MDA-MB-231 cells assessed as increase in caspase 3/7 activity up to 500 nM incubated for 48 hrs by caspase glo 3/7 assay; assay type: functional, cell-based
MDA-MB-231 [4] = experiment: Binding affinity to pri-miR-96 RNA in human MDA-MB-231 cells assessed as increase in FOXO1 protein expression at 50 nM for 24 hrs by RT-qPCR method; assay type: cell-based
[5] = Binding affinity to pri-miR-96 RNA (unknown origin) at 1000 nM in presence of Targaprimir-96 by in vitro competitive (C-)Chem CLIP assay
MDA-MB-231 [6] = experiment: Binding affinity to pri-miR-96 RNA in human MDA-MB-231 cells assessed as increase in RNA abundance at 50 nM for 24 hrs by RT-qPCR relative to control; assay type: cell-based
microRNA 96 [7] = experiment: Inhibition of miR-96 RNA in human MDA-MB-231 cells by TargetScan assay; assay type: cell-based
microRNA 96 [8] = experiment: Inhibition of miR-96 RNA in human MDA-MB-231 cells by volcano plot analysis; assay type: cell-based
MCF-10A = experiment: Induction of apoptosis in human MCF10A cells assessed as increase in caspase 3/7 activity up to 500 nM incubated for 48 hrs by caspase glo 3/7 assay; assay type: cell-based

| SMILES | Activity (MDA-MB-231 [1]) | Activity [2] | Activity (MDA-MB-231 [3]) | Activity (MDA-MB-231 [4]) | Activity [5] | fold change (FC) (MDA-MB-231 [6]) | inhibition (microRNA 96 [7]) | inhibition (microRNA 96 [8]) | Activity (MCF-10A) |
| --- | --- | --- | --- | --- | --- | --- | --- | --- | --- |
| C#CCN(CC(=O)N(CCNC(=O)CCCC[C@H]1SC[C@H]2NC(=O)N[C@H]21)CC(N)=O)C(=O)CN(CCC)C(=O)CN(CCNC(=O)CCCc1ccc(N(CCCl)CCCl)cc1)C(C)=O (Ac-[N(2-Aminoethyl)Gly](Chlorambucil)[NPrGly][Gly(N-propargyl)][N(2-Aminoethyl)Gly](Biotinyl(3aR,4R,6aS))-NH2) | inactive | inactive | inactive | inactive |  |  |  |  |  |
| CCCN(CC(=O)N(CC(=O)N(CCNC(=O)CCCC[C@H]1SC[C@H]2NC(=O)N[C@H]21)CC(N)=O)Cc1cn(CCCNC(=O)CCCOc2c(C(C)(C)C)cc(-c3nc4cc(N5CCN(C)CC5)ccc4[nH]3)cc2C(C)(C)C)nn1)C(=O)CN(CCNC(=O)CCCc1ccc(N(CCCl)CCCl)cc1)C(=O)CCCOc1cccc(-c2nc3ccc(-c4nc5ccc(N6CCN(C)CC6)cc5[nH]4)cc3[nH]2)c1 | Active | Active | Active | Active | inactive | 1.5 | Active | Active |  |
| CCCN(CC(=O)N(CC(=O)N(CCNC(=O)CCCC[C@H]1SC[C@H]2NC(=O)N[C@H]21)CC(N)=O)Cc1cn(CCCNC(=O)CCCOc2c(C(C)(C)C)cc(-c3nc4cc(N5CCN(C)CC5)ccc4[nH]3)cc2C(C)(C)C)nn1)C(=O)CN(CCNC(=O)CCCc1ccc(N(CCCl)CCCl)cc1)C(=O)CCCOc1cccc(-c2nc3ccc(-c4nc5cc(N6CCN(C)CC6)ccc5[nH]4)cc3[nH]2)c1 |  |  |  |  |  |  |  |  | Non-Toxic |
| CCCN(CC(=O)N(CCC)CC(=O)N(CC(N)=O)Cc1cn(CCCNC(=O)CCCOc2c(C(C)(C)C)cc(-c3nc4cc(N5CCN(C)CC5)ccc4[nH]3)cc2C(C)(C)C)nn1)C(=O)CCCOc1cccc(-c2nc3ccc(-c4nc5ccc(N6CCN(C)CC6)cc5[nH]4)cc3[nH]2)c1 | Active |  | Active | Active |  | 1.5 |  |  | Non-Toxic |

— ChEMBL document CHEMBL4340537, “A cross-linking approach to map small molecule-RNA binding sites in cells” (Bioorg Med Chem Lett, 2019)
